Like-named read-outs stand apart in the source and are kept apart here.
Tests used:
[1] = system: experimental uveitis
[2] = system: cataract formation; assay: Cataract formation on slit lamp biomicroscopy on day 31 (LOCS scale) in the rabbit uveitis study; settings: day 31, slit lamp, FIG. 4
Experimental: Clinical examination was performed by 2 masked independent investigators. Slit-lamp biomicroscopy, measurement of intraocular pressure with the Tonopen, photography of the anterior segment and dilated fundal examination with binocular indirect ophthalmoscopy using a 20D lens were performed prior to uveitis induction and at 8 defined time points thereafter (Days 0, 1, 3, 4, 8, 9, 11, 16, 24 and 31). Clinical severity of uveitis was scored by evaluating anterior chamber cells/flares, vitreous haze, and iris vessels. […] The combined anterior segment inflammatory score was defined as the sum of the scores for iris vessels, anterior chamber cells and anterior chamber flare. The presence of cataract was determined on slit lamp biomicroscopy on day 31 and graded based on the LOCS scale.

Structure (SMILES): C[C@]12C=CC(=O)C=C1CC[C@@H]1[C@@H]2[C@@H](O)C[C@@]2(C)[C@H]1CC[C@]2(O)C(=O)COP(=O)(O)O [Free PP, prednisolone phosphate]
- Combined anterior segment inflammatory score ([1]; Day 1 after 1st intravitreal induction, before intervention (baseline), mean ± SD, sum of iris congestion (0-3), anterior chamber cells (0-4), flare (0-3)): 8.6 ± 0.5
- Combined anterior segment inflammatory score ([1]; Day 3, at intervention (baseline, maximum inflammation)): 8.0 ± 0.7
- Combined anterior segment inflammatory score ([1]; Day 4, one day after intervention (single 0.1 ml subconjunctival injection 4 mg/ml, or eye drops 4 drops per day)): 6.0 ± 0.7
- Combined anterior segment inflammatory score ([1]; Day 8, 5 days after intervention, before 2nd intravitreal induction): 3.2 ± 0.4
- Combined anterior segment inflammatory score ([1]; Day 9, 1 day after 2nd intravitreal induction): 8.0 ± 1.2
- Combined anterior segment inflammatory score ([1]; Day 11, 3 days after rechallenge of intravitreal TB antigen): 7.0 ± 2.3
- Combined anterior segment inflammatory score ([1]; Day 16, 2 weeks post treatment): 5.4 ± 1.3
- Combined anterior segment inflammatory score ([1]; Day 24): 2.8 ± 0.4
- Combined anterior segment inflammatory score ([1]; Day 31): 2.2 ± 1.3
- Cataract formation (posterior subcapsular cataracts) [2]: trend towards higher rates
